Source: patent US20250332298A1, “PEPTIDE-COUPLED ALGINATE GELS COMPRISING RADIONUCLIDES” (BLUE WAVE THERAPEUTICS GMBH, priority 2021, published 2025)
Several values for one entry are separate records, joined by “and”; a condition that tells them apart may be missing. Identical values can stand only once.

Legend:
[1] = Binding of radium-224 and decay daughters to calcium alginate microparticles and retention over 12 days; details: for Day 0 particles directly after labelling, radioactivity: 30 mg microparticles, 30 min room temperature, washed, HPGe; for Day 1 radioactivity associated with particles: 24 hours after labelling; for Day 1 radioactivity associated with particles / Day 12 radioactivity associated with particles: room temperature, after washing with water; for Day 12 radioactivity associated with particles: 12 days after labelling; for Day 0 % bound radioactivity relative to available radioactivity: directly after labelling
Method: Calcium alginate was produced via the conversion of sodium alginate powder suspended in isopropyl alcohol by adding an aqueous solution of calcium chloride as exemplified in US 2011/0053886 incorporated herein.
A 30 mg sample of calcium alginate microparticles, having an average size distribution (DV50) of 13 μm, was resuspended first in 200 μl water, then 150 μl radium-224 solution was added followed by an additional 150 μl of water. The sample was vortex mixed then incubated at room temperature for 30 min. An aliquot of 500 μl water was added to the particle suspension. The sample was vortex mixed then centrifuged for 1 min at 6000 rpm. The supernatant was transferred to another Eppendorf tube labelled Wash 1. The particle sample was then resuspended in 1000 μl water, vortexed, then centrifuged. The supernatant was transferred to an Eppendorf tube labelled Wash 2. The wash with 1000 μl water was repeated and the supernatant collected to tube Wash 3. Samples were then analysed for radioactivity using a high purity germanium detector.
The sample was kept at room temperature and analysed again at day 1 (24 hours after labelling) and 12 days after labelling. Radioactivity was determined after first washing the particles with water.
This solution represents the available radioactivity, and radionuclides, added to calcium alginate microparticles. Following incubation and a wash to remove unbound radioactivity, the radioactivity associated with the alginate microparticles was again measured respective to each decay daughter radionuclide. The % bound radioactivity relative to the available radioactivity was calculated.
When the particles were washed on day 1 after labelling, and radioactivity determined (HPGe detector), in addition, the amount of 224-Ra radioactivity theoretically remaining associated with the alginate microparticles was calculated using an available radioactive decay calculator (http://www.radprocalculator.com).

[2] = Binding efficiency of thorium-227 and its decay daughters to preformed alginate microspheres (calcium cross-linked); assay type: physicochemical; details: for Bound at 1 h, Bq: 227Th4+ solution in NaCl; for Bound at 1 h, Bq / Bound at 1 h, %: 1 h incubation; for Bound at 2 h, Bq / Bound at 2 h, %: 2 h incubation; for Bound at 1 h, % / Bound at 2 h, %: % of available radioactivity
Method: In this Experiment, binding of a tetravalent radionuclide cation to alginate microspheres was studied.
Calcium crosslinked, inhomogeneous gelled alginate microspheres were made in the same manner as shown in Example 5 above. The microspheres were washed three times using 0.9% NaCl solution, resuspended in 0.8% NaCl and incubated with a solution of ^227Th^4+. Of the available amount of radioactivity, approximately 30% bound to the pre-formed alginate microspheres (Table 3).

Compound	Day 0 particles directly after labelling, radioactivity [1]	Day 1 radioactivity associated with particles [1] [Bq]	Day 12 radioactivity associated with particles [1] [Bq]	Bound at 1 h, Bq [2] [Bq]	Bound at 2 h, Bq [2] [Bq]	Bound at 1 h, % [2] [%]	Bound at 2 h, % [2] [%]	Day 0 % bound radioactivity relative to available radioactivity [1] [%]	other results
[212Pb] [Formulation 212-Pb, lead-212]	8370 Bq	7840	1040						
[223Ra] [Radium-223]				10512	11201	111.5	118.8		Bound at 1 h, % ([2]; listed as 223Ra): 100%; Bound at 1 h, % ([2]; listed as radium): 100%
[212Bi] [Formulation 212-Bi, bismuth 212]	7640 Bq	7650	910					83.6	
[227Th] [Thorium-227]				24679	30647	30.4	37.7		Bound at 1 h, % ([2]; listed as 227Th): approximately 30%; Bound at 1 h, % ([2]; listed as thorium-227): approximately 30%
[211Bi] [Bismuth-211]				10067	11154	90.2	99.9		Bound at 1 h, % ([2]; listed as 211Bi): 100%; Bound at 1 h, % ([2]; listed as bismuth): 100%
[224Ra] [Formulation 224-Ra, radium-224]	8720 Bq and 8740 Bq	7270	913					94.9	Day 1 % radioactivity remaining bound relative to theoretical radioactivity following decay ([1]; Day 1): 100%; Day 12 % radioactivity remaining bound relative to theoretical radioactivity following decay ([1]; Day 12): 100% and 101%
